Experiments:
[1] = test system: Plasmodium falciparum; experiment: MMV: Inhibition of Plasmodium falciparum 3D7 (EC50).; type: functional, organism-based
[2] = test system: Trypanosoma cruzi; experiment: MMV: Inhibition of Trypanosoma cruzi (Tulahuen C4 LacZ) (Chagas in vitro).; type: functional, organism-based
[3] = test system: Trypanosoma brucei brucei; experiment: MMV: Inhibition of Trypanosoma brucei brucei (Squib 427) (HAT in vitro).; type: functional, organism-based
[4] = test system: Trypanosoma brucei rhodesiense; experiment: MMV: Inhibition of Trypanosoma brucei rhodesiense (STIB 900) (HAT in vitro).; type: functional, organism-based
[5] = test system: Leishmania infantum; experiment: MMV: Inhibition of Leishmania infantum (MHOM/MA/BE/67) in vitro.; type: functional, organism-based
[6] = MMV: Cytotoxicity against human fibroblasts (MRC-5) cells.; details: MRC-5 cells (human fibroblasts)
[7] = test system: Plasmodium falciparum; experiment: MMV: Inhibition of Plasmodium falciparum 3D7 at 5uM compound concentration.; type: functional

Structure (SMILES)	EC50 [1] [µM]	IC50 [2] [µM]	IC50 [3] [µM]	IC50 [4] [µM]	IC50 [5] [µM]	IC50 [6] [µM]	inhibition at 5 µM [7] [%]
COc1ccc(C2c3ccc4ccccc4c3Oc3ncn(CCCN(C)C)c(=N)c32)cc1 (configuration not stated)	1.23	1.01	0.259	0.223	1.01	3.49	–
COc1ccc(-c2c(C)nn3c(N)c(C#N)cnc23)cc1OC	0.477	> 32	> 32	> 32	> 32	27.6	–
COc1ccc2c(c1)C1(Nc3ccccc3-c3nc4ccccc4n31)C(=O)N2 (configuration not stated)	0.928	> 32	> 32	> 32	> 32	> 32	–
COc1cccc(Cn2c(Oc3ccccc3)nc3c2c(=O)n(C)c(=O)n3C)c1	1.39	> 32	> 32	> 32	> 32	> 32	–
N=c1n(CCN2CCCCC2)c2ccccc2n1CC(=O)c1ccc(Cl)c(Cl)c1	1.24	4.48	4	1.1	4.06	10.6	–
OC(CNCC1CCCO1)Cn1c2ccc(Cl)cc2c2cc(Cl)ccc21 (configuration not stated)	1.06	19.2	10	6.12	16.1	> 32	–
CCN(CC)CCNc1ncnc2c1[nH]c1ccc(Cl)cc12	0.406	10.7	4.09	3.73	16.2	> 32	–
CN1CCN(c2ncnc3c2[nH]c2ccc(Cl)cc23)CC1	1.19	30.8	14.6	11	21.5	> 32	–
CC1(c2ccccc2)Nc2ccccc2-c2nc3ccccc3n21 (configuration not stated)	1.73	19.1	17.1	10.3	> 32	> 32	–
COc1ccc(CCN2C(=O)c3[nH]nc(-c4cc(Cl)c(C)cc4O)c3C2c2ccccc2F)cc1 (configuration not stated)	0.916	12.9	4	3.56	12	> 32	–
COc1cccc(C2(C)Nc3ccccc3-c3nc4ccccc4n32)c1 (configuration not stated)	1.15	13.4	15	14.5	> 32	26.4	–
N#Cc1nc(Cc2cccc3ccccc23)oc1N1CCN(C(c2ccccc2)c2ccccc2)CC1	1.16	> 32	> 32	15.7	25.4	> 32	–
CC(C)CNC(=O)c1c(N)n(CCc2ccccc2F)c2nc3ccccc3nc12	0.832	> 32	> 32	> 32	> 32	> 32	–
O=C(NNc1cc(N2CCCC2)nc(N2CCCC2)n1)c1ccccc1	1.33	13.7	> 32	16.5	25.4	> 32	–
CC(C)(C)CC(C)(C)NCC(O)COc1ccc(Cl)cc1Cl (configuration not stated)	1.16	12.2	4	4.06	6.35	16.1	–
Cc1cccc(-n2ncc3c(O)nc(-n4nc(C)cc4NC(=O)c4cc5ccccc5o4)nc32)c1	0.929	0.234	0.481	0.305	4.32	0.653	–
COC(=O)c1ccc(Cl)c2c1C1C=CCC1C(c1cccc3ccccc13)N2 (configuration not stated)	0.939	13.5	16	11.9	17.3	> 32	–
COc1ccc(C2c3ccc4ccccc4c3Oc3ncn(CCCn4ccnc4)c(=N)c32)cc1OC (configuration not stated)	1.79	4.2	15.5	1.8	5.38	10.1	–
CN(N=O)C1=C(NC2CCCCC2)C(=O)c2ccccc2C1=O	1.19	12.8	16.5	4.61	> 32	> 32	–
OC1=C2C(=Nc3ccccc3SC2c2ccccc2)c2ccccc21 (configuration not stated)	0.89	13.9	4.15	3.56	16.2	15.7	–
O=C(NCc1ccco1)C1CCN(S(=O)(=O)c2ccc(Cl)cc2)CC1	0.891	> 32	> 32	28.9	> 32	> 32	94

Structure (SMILES)	EC50 [1] [µM]	IC50 [2] [µM]	IC50 [3] [µM]	IC50 [4] [µM]	IC50 [5] [µM]	IC50 [6] [µM]	inhibition at 5 µM [7] [%]
CCOc1ccc(CN2CCN(CC(O)COc3ccc(OCC(O)CN4CCN(Cc5ccc(OCC)cc5)CC4)cc3)CC2)cc1 (configuration not stated)	1.2	2.54	3.52	0.964	2.52	10.7	97
COc1ccc(CCn2c(=N)c(C(=O)NCc3cccnc3)cc3c(=O)n4cccc(C)c4nc32)cc1	0.373	13.2	4	3.6	12.7	> 32	–
CC(=O)NCCc1nc2ccccc2n1Cc1ccc(C(C)C)cc1	1.79	> 32	> 32	> 32	> 32	> 32	97
CCOC(=O)c1cnc2ccc(Cl)cc2c1NCCCN(C)C	1.19	16.2	7.4	4.19	16.1	> 32	98
O=C1c2ccccc2C2=Nc3ccccc3SC(c3cccc(F)c3)C12 (configuration not stated)	0.415	> 32	> 32	7.17	> 32	> 32	94
Cc1ccccc1OCCSc1nc2ccc(NC(=O)c3ccccc3)cc2s1	1.12	> 32	> 32	> 32	> 32	> 32	93
Cc1ccc(Cn2c(N3CCC(C(=O)NCc4cccs4)CC3)nc3ccccc32)cc1	0.947	> 32	> 32	> 32	25.4	> 32	73
Cc1ccc2nc(C)cc(Nc3cccc(C(F)(F)F)c3)c2c1	1.17	5.96	4.12	3.86	3.06	28.9	98
CC1CC(C)CN(C(=O)c2ccc(Cl)cc2Cl)C1 (configuration not stated)	0.756	24.7	> 32	> 32	17.3	> 32	95
CCCCc1ccc(NS(=O)(=O)c2cc3c4c(c2)CCN4C(=O)CC3)cc1	0.538	13.6	> 32	16.3	19	5.61	96
CCn1c2c(c(=N)c3c1CCC3)CCCC2	0.695	9.02	> 32	> 32	> 32	32	77
CCOc1ccccc1CNC(=O)C1c2ccccc2C(=O)N(CC(C)C)C1c1cccs1 (configuration not stated)	1.32	14.9	16.1	16.1	> 32	> 32	97
O=C(NCc1ccco1)C1CCN(S(=O)(=O)c2ccc(Br)cc2)CC1	0.939	> 32	> 32	> 32	> 32	> 32	93
COc1ccc(-c2nc3cc(Cc4ccc5[nH]c(-c6ccc(OC)cc6)nc5c4)ccc3[nH]2)cc1	0.176	< 0.125	0.179	< 0.125	4.06	4.76	98
COc1ccc2c(c1OC)C(=O)N1c3ccccc3N=C(c3ccc(C)cc3)CC21 (configuration not stated)	1.24	> 32	4.28	3.83	> 32	> 32	93
COc1ccc(CCNC(=O)c2cc(S(=O)(=O)N3CC(C)CC(C)C3)ccc2Sc2ccc(F)cc2)cc1OC (configuration not stated)	0.632	> 32	> 32	> 32	> 32	> 32	97
CCOc1ccc(Nc2c3ccccc3nc3ccccc23)cc1	1.06	1.25	3.45	0.976	1.59	8.44	97
CCCCCCOC(=O)C1=C(C)NC(=O)NC1c1ccccc1F (configuration not stated)	0.106	> 32	> 32	> 32	18.4	> 32	95
CCCN(CCC)CCCNC(=O)c1cc2c(-c3ccc(OC)c(OC)c3)nn(C)c2s1	1.43	27.5	> 32	14.6	16	> 32	98
C=CCc1c(C)nc2ccccc2c1O	1.29	> 32	> 32	> 32	> 32	> 32	85
Nc1ccn([C@@H]2O[C@H](CO)[C@@H](O)[C@H]2O)c(=O)n1 [CYTIDINE]	0.385	> 32	> 32	> 32	> 32	> 32	–

— ChEMBL document CHEMBL2028040, “Malaria Box”
